Measured values reported in US20250074911A1, “MACROCYCLIC BTK INHIBITORS” (Crossfire Oncology Holding B.V., priority 2021, published 2025).

Assays:
BTK T474I = BTK T474I (Homo sapiens (Human), UniProt Q06187, T474I); assay: Binding kinetics measurements (Surface Plasmon Resonance) on BTK T474I; settings: for Tau (h) BTK T474I (Act): target residence time, SPR
Procedure, shortened: (§1)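 Constants (ka, kd, KD) are geometric means of duplicates from single cycle SPR at 22° C, with compound at 3.16-316 nM in five steps. Residence time for induced-fit binders derived per a two-state model.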

[1] = test system: wt-BTK, BTK C481S, BTK T474I and BTK C481S/T474I expressing 293 cells; assay: Cell based washout, pBTK (Tyr223) Western blot; set-up: species or system human; settings: 1000 nM compound 2 hours, washed twice, harvested 0-24 hours
Method: In vitro cellular (mutant) BTK inhibition, and inhibitor wash-out Generation of human wt-BTK, BTK C481S, BTK T474I, and BTK C481S/T474I expressing GripTite 293 MSR cells.
GripTite 293 MSR cells (Thermo Fisher, cat. no. R79507), here after referred to as 293 cells, were cultured in DMEM/F-12, GIutaMAX™ supplement medium (Thermo Fisher cat. no. 10565018) supplemented with 1% Penicilline/Streptomycine (Thermo Fisher cat. no. 15140122) 10% fetal bovine serum (Biowest, cat. no. Si181 0-500), 1× MEM Non-Essential Amino Acids (Thermo Fisher cat. no. 11140050) and 50 μg/ml Geneticin (Thermo Fisher cat. no. 10131035). Cells were transfected, with pEF6/V5-HisB (Thermo Fisher cat. no. V96120) expression vectors containing either full-length wildtype-BTK (canonical sequence NM_000061), BTK C481 S, BTK T474I or BTK C481 S/T474I (BaseClear) using Lipofectamine™ 3000 (Invitrogen). Because the stop codon at the end of the coding sequence of BTK has been conserved, the His-tag present in the expression vector is not being used. Immediately after transfection, cells were cultured in medium without Geneticin, and after 24 hours 50 μg/ml geneticin was added. 48 hours after transfection, medium was removed and replaced by medium containing both geneticin (50 μg/ml) and blasticidin (10 μg/ml) S HCl (Thermo Fisher, cat. no. A1113903). The resulting transfectants were cultured under blasticidin selection pressure for 18-35 passages to obtain stable wild-type BTK (wt-BTK), BTK C481S, BTK T474I, and BTK C481 S/T474I expressing cell pools. Stability of the (mutant) BTK expression in the 293 cell pools was confirmed by poly-acrylamide gel electrophoresis followed by Western blotting (FIG. 1A). […] For both experiments 10 μg of protein was separated on 4-12% Bis-Tris polyacrylamide gels.
Wild-type BTK, BTK C481S, BTK T474I or BTK C481 S/T474I expressing 293 cells were lysed in lysis buffer supplemented with protease inhibitors (Merck, cat. no. P8340) and phosphatase inhibitors (Thermo Fisher, cat. no. 78426). The protein concentration was determined with a Pierce BCA protein assay kit (Thermo Fisher, cat. no. 23227). Lysates were diluted to a concentration of 1 μg/μl in NuPage® LDS Sample Buffer (Thermo Fisher, cat. no. NP0008) with 167 mM DTT (Acros Organics, cat. no. 10686841) and denatured for 5 minutes at 95° C. The samples (10 μg protein) were, together with a pre stained protein ladder (Thermo Fisher, cat. no. 26616), separated on 4-12% Bis-Tris polyacrylamide gels (Thermo Fisher, cat. no. NP0324BOX). Separated protein was subsequently transferred, in methanol free transfer buffer (Thermo Fisher, cat. no. 35045), to a nitrocellulose membrane (Thermo Fisher, cat. no. 88018). Blots were first immunologically stained with phospho-BTK (Tyr223) rabbit mAb (Cell Signaling, cat. no. 5082S), and beta-actin rabbit mAb (Cell Signaling, cat. no. 4967S), followed by peroxidase conjugated goat anti-rabbit IgG (Cell Signaling, cat. no. 7074S). Afterwards, antibodies were removed using Western-blot stripping buffer (Thermo Fisher cat. no. 46428) and staining was repeated with a (total-)BTK mouse mAb (Abnova, cat. no. MAB0798), followed by peroxidase conjugated horse anti-mouse IgG (Cell Signaling, cat. no. 7076S). For all blots the colour development was performed with ECL horseradish peroxidase substrate (BioRad, cat. no. 170-5060).
Wild-type BTK, BTK C481S, BTK T474I, and BTK C481 S/T474I expressing 293 cells were growing exponentially when seeded in culture medium, without blasticidin, at a density of 2,000,000 cells/4 ml/well, in 25 cm^2 cell culture flasks (Greiner Bio-one, cat. no. 690175). Flasks were placed in a 37° C. C02-incubator for 16-24 hours after which 1 ml culture medium containing 5000 nM of the compound of Example 46 or Example 201, or Example 184, or Example 204, or Example 45 or (+/−) Loxo-305, or 0.05% DMSO (no compound) was added. 2 hours after addition of the inhibitors (0h) cells are either collected or washed twice with 5 ml culture medium. […]

BTK T474S = BTK T474S (Homo sapiens (Human), UniProt Q06187, T474S); assay: Binding kinetics measurements (Surface Plasmon Resonance) on BTK T474S; settings: for residence time: read-out: Tau (h) BTK T474S (Act), target residence time
Procedure, shortened: as §1

BTK C481S = BTK C481S (Homo sapiens (Human), UniProt Q06187, C481S); assay: Binding kinetics measurements (Surface Plasmon Resonance) on BTK C481S; settings: for Tau (h) BTK C418S (Act): target residence time for BTK C481S, SPR
Procedure, shortened: as §1

wt-BTK = wt-BTK (Homo sapiens (Human), UniProt Q06187); assay: Binding kinetics measurements (Surface Plasmon Resonance) on wt-BTK; settings: for Tau (h) wt-BTK (Act): target residence time, SPR
Procedure, shortened: as §1

BTK T316A = BTK T316A (Homo sapiens (Human), UniProt Q06187, T316A); assay: Binding kinetics measurements (Surface Plasmon Resonance) on BTK T316A; settings: for Tau (h) BTK T316A (Act): target residence time, SPR
Procedure, shortened: as §1

[2] = binding affinity by Surface Plasmon Resonance (SPR)

Sequence of BTK C481S (Q06187 whole entry C481S): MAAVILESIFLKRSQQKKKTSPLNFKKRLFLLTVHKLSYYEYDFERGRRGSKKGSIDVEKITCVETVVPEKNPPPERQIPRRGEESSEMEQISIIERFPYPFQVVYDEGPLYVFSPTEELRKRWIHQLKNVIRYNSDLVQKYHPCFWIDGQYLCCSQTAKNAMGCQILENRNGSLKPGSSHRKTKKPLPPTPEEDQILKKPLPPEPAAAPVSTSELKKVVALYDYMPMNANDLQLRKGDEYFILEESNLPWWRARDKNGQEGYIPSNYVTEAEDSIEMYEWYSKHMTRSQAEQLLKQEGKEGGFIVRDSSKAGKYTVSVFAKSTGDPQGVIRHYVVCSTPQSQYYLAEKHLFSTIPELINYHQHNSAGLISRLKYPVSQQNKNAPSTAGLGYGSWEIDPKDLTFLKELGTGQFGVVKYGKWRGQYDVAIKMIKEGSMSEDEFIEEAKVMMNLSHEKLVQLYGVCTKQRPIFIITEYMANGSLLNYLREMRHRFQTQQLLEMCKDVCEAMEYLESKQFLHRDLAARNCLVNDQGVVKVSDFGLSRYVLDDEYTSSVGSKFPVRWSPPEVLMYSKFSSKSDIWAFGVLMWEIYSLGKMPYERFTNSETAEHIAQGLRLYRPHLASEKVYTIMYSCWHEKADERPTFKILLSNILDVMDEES
Sequence of wt-BTK (Q06187 whole entry): as the sequence (Q06187 whole entry C481S) above, with S481C counted along it
Sequence of BTK T474S (Q06187 whole entry T474S): as the sequence (Q06187 whole entry C481S) above, with T474S, S481C counted along it
Sequence of BTK T474I (Q06187 whole entry T474I): as the sequence (Q06187 whole entry C481S) above, with T474I, S481C counted along it
Sequence of BTK T316A (Q06187 whole entry T316A): as the sequence (Q06187 whole entry C481S) above, with T316A, S481C counted along it

With `Nc1ncc2c3c1c(-c1ccc(C(=O)Nc4cc(C(F)(F)F)ccn4)cc1)nn3[C@@H]1CCC[C@H](C1)NC(=O)CCCCC/C=C/2` [Example 46] the Kd (BTK T474I; [2]) was < 2 nM, the “Tau (h) BTK T474I (Act)” value (BTK T474I) was 2.58 h and the “time for which level of phosphorylated BTK (pBTK (Tyr223)) is prohibited or reduced after wash-out” value ([1]; also cell lines expressing mutant BTK) was “at least 6 hours”. For the same molecule, the Kd (BTK T474S; [2]) was < 3 nM, the residence time (BTK T474S) was 4.8 h and the Kd (BTK C481S; [2]) was < 5 nM. For the same molecule, the “Tau (h) BTK C418S (Act)” value (BTK C481S) was 9.36 h, the Kd (wt-BTK; [2]) was < 5 nM and the “Tau (h) wt-BTK (Act)” value (wt-BTK) was 4.87 h. For the same molecule, the Kd (BTK T316A; [2]) was < 5 nM and the “Tau (h) BTK T316A (Act)” value (BTK T316A) was 3.23 h.

For `COc1ccc(F)cc1C(=O)NCc1ccc(-c2nn([C@@H](C)C(F)(F)F)c(N)c2C(N)=O)cc1` [pirtobrutinib, reference compound], the “target residence time on BTK T474 mutants (T474I)” value (BTK T474I; result in words) was “short target residence times”, the “Tau (h) BTK T474I (Act)” value (BTK T474I) was 0.03 h and the “level of phosphorylated BTK (pBTK (Tyr223)) in wash-out experiments” value ([1]; result in words) was “does not prohibit or reduce the level of phosphorylated BTK”. The residence time (BTK T474S) was 1.25 h, the “target residence time on BTK T474 mutants (T474S)” value (BTK T474S; result in words) was “short target residence times” and the “target residence time on BTK C481 mutants” value (BTK C481S; result in words) was “short target residence times”. For the same molecule, the “Tau (h) BTK C418S (Act)” value (BTK C481S) was 0.91 h, the “target residence time on wild-type-BTK” value (wt-BTK; result in words) was “short target residence times” and the “Tau (h) wt-BTK (Act)” value (wt-BTK) was 0.45 h. The “target residence time on BTK T316 mutants” value (BTK T316A; result in words) was “short target residence times” and the “Tau (h) BTK T316A (Act)” value (BTK T316A) was 0.17 h.
